Like-named read-outs stand apart in the source and are kept apart here. Values belong to the molecule of their own block, whether it stands above or below them.
Columns and labels:
hERG receptor = hERG receptor (Homo sapiens (Human), UniProt Q12809); assay: HERGBD: inhibition of specific [3H]-Dofetilide binding to the hERG receptor
Procedure: Inhibition of Specific Binding to the hERG—Receptor (HERGBD)
A HEK cell line with stable transfected human ERG receptor was used for the assay. The cells were grown adherently and maintained in DULBECCOS' MEM medium with 10% FBS, 1% non-essential amino acids, 1% Penicillin/Streptomycin and 400 μg/ml G418 (Calbiochem).
For binding assays and membrane preparations the cell culture medium was removed, cells were washed with PBS. Crude membranes for radioligand binding experiments were prepared by scraping the cells off the dishes in ice cold 20 mM HEPES/0.1 mM KCl/pH 7.2. The cell suspension was homogenized on ice (Ultra turrax, 3×20 sec.) and the homogenate was spun for 10 min (1° C., 1000 g, OPTIMA, SW28, 2800 U/min). The supernatant was than centrifuged for 40 min at 100000 g (1° C., OPTIMA, SW28, 23000 U/min). The membrane pellet was re-suspended in 20 mM HEPES/0.1 mM KCl pH 7.2, frozen and stored at −80° C.
After thawing on the day of the assay, the membrane suspension was diluted further with 20 mM HEPES/0.1 mM KCl/pH 7.2.
The incubation mixture of 200 μl contained 1.5 nmol/l 3H-Dofetilide, optimized amount of membrane preparation, 20 mM HEPES/0.1 mM KCl/(pH 7.2) and inhibitor in 1% DMSO. Nonspecific binding was estimated in the presence of […] Dofetilide. The samples were incubated for 90 min. at RT.
Binding was terminated by filtration of the incubated membrane preparations using Filtermat B (Pharmacia, Uppsala Sweden) and a Micro Cell Harvester (Skatron, Lier, Norway). The Filtermat B had been presoaked with 1% polyethylen imine and carefully washed with 0.05 M Tris/HCl-buffer pH=7.7 after the filtration to separate free and bound radioactivity. The filters were counted in a scintillation counter (Betaplate 1205, Berthold, Wildbad, Germany) in order to determine the specific binding of [^3H]-Dofetilide.
The optimal amount of membrane preparation in the assay was determined and optimized for each membrane preparation separately in front of using the membranes in compound testing.
For pipetting of the incubation mixture we routinely use the robot Biomek2000 (Fa. Beckman).

rat NR1/NR2B receptor = rat NR1/NR2B receptor (Rattus norvegicus (Rat), UniProt P35439+Q00960); assay: NR2B binding assay: inhibition of specific [3H]-Ifenprodil binding to the rat NR1/NR2B receptor; details: for inhibition at 1 µM: 1 μM test compound, read-out: % INH @ 1 μM; for inhibition at 10 µM: read-out: % INH @ 10 μM
Procedure: Biological Assays Inhibition of Specific Binding to the Rat NR1/NR2B Receptor
Male Wistar rats (180 to 200 g) were killed by suffocation in a CO2 chamber for two minutes. Whole brains without cerebellum were removed and dissected on ice, placed into closed vials and stored at −70° C.
Membrane fractions were prepared and tested using standard techniques. At the time of the assay, 1 g of the brains was placed into 25 ml of 50 mM Tris/10 mM EDTA buffer, pH 7.1, (25 vol. per g of original tissue) and homogenized for 30 sec at 20000 rpm with an Ultraturrax T25 (Jahnke & Kunkel, IKA-Labortechnik, Staufen, Germany).
The supernatant was discarded and the pellet was homogenized on ice for 30 sec at 20000 rpm with an Ultraturrax and again centrifuged at 48000 g for 30 minutes at 4° C. The resultant pellet was resuspended in 25 ml of 50 mM Tris/10 mM EDTA buffer, homogenized for 30 sec with an Ultraturrax, aliquoted, frozen at −70° C. and stored until use.
After thawing on the day of the assay, a 5 ml membrane aliquot was centrifuged at 48000 g for 30 min at 4° C. The pellet was resuspended in 5 ml of 5 mM Tris/1 mM EDTA buffer, pH 7.4, homogenized for 30 sec at 20000 rpm with an Ultraturrax and centrifuged at 48000 g for 30 min at 4° C. This was repeated twice. The final pellet was homogenized in 5 ml of 5 mM Tris/1 mM EDTA buffer at 4° C. with an Ultraturrax and used for the Ifenprodil-binding assay as described in the following.
Nonspecific binding was estimated in the presence of […] CP101.606. The samples were incubated for 60 min. at 4° C.
The incubation was terminated by filtration of the membrane preparations using Filtermat B (Pharmacia, Uppsala Sweden) and a Micro Cell Harvester (Skatron, Lier, Norway). The Filtermat B had been presoaked with 1% polyethylene imine and carefully washed with 50 mM Tris/HCl-buffer pH 7.7 after the filtration to separate free and bound radioactivity.
The optimal amount of membrane preparation in the assay was determined and optimized for each membrane preparation separately before the test.
For pipetting of the incubation mixture the robot Biomek2000 (Fa. Beckman) was used.
For determination of IC50 values the Hill-plot, 2-parameter-model was used.

[1] = [3H]-Dofetilide binding, membranes of HEK cells with human ERG receptor, read-out: IC50
[2] = [3H]-Ifenprodil binding, rat brain membranes

rat NR1/NR2B receptor, sequence (Q00960 27-1482, other chains not shown): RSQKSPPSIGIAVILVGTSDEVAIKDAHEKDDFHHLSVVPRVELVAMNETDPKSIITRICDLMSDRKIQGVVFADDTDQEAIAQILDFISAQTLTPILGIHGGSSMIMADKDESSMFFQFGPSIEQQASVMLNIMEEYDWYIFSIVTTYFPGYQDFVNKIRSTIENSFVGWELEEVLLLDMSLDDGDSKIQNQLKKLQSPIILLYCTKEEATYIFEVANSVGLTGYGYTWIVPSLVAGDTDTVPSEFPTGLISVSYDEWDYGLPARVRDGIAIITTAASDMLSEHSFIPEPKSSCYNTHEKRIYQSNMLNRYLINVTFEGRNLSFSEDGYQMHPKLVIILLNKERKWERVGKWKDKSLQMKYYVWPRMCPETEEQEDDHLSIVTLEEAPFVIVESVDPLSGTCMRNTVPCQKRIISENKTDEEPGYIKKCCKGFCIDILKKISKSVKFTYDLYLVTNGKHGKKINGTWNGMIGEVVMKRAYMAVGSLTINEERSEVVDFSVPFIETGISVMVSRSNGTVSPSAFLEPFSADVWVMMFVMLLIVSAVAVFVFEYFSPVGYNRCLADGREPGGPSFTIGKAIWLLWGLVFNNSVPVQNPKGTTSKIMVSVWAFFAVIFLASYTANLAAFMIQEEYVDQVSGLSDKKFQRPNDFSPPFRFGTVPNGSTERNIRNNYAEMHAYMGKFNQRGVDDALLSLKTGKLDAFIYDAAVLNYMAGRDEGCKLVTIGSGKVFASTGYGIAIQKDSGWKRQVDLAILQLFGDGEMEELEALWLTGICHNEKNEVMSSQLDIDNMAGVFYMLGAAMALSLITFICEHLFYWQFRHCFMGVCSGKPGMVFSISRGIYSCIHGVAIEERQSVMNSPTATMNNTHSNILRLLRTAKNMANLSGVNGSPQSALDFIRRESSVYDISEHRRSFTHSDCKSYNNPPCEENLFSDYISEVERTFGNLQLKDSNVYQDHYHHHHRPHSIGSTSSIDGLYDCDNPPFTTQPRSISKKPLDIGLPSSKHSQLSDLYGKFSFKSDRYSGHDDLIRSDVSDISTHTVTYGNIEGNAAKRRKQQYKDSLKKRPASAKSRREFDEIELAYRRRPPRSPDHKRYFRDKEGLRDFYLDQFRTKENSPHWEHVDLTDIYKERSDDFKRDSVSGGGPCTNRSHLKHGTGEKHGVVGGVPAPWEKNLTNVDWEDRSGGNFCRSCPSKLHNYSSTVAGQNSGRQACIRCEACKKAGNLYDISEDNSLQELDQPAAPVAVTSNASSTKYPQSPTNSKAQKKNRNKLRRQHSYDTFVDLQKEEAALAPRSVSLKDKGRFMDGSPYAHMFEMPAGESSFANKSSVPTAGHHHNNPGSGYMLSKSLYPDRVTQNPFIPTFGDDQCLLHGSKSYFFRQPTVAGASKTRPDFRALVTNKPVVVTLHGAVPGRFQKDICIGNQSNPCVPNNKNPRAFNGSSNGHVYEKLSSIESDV
hERG receptor, sequence (Q12809 whole entry): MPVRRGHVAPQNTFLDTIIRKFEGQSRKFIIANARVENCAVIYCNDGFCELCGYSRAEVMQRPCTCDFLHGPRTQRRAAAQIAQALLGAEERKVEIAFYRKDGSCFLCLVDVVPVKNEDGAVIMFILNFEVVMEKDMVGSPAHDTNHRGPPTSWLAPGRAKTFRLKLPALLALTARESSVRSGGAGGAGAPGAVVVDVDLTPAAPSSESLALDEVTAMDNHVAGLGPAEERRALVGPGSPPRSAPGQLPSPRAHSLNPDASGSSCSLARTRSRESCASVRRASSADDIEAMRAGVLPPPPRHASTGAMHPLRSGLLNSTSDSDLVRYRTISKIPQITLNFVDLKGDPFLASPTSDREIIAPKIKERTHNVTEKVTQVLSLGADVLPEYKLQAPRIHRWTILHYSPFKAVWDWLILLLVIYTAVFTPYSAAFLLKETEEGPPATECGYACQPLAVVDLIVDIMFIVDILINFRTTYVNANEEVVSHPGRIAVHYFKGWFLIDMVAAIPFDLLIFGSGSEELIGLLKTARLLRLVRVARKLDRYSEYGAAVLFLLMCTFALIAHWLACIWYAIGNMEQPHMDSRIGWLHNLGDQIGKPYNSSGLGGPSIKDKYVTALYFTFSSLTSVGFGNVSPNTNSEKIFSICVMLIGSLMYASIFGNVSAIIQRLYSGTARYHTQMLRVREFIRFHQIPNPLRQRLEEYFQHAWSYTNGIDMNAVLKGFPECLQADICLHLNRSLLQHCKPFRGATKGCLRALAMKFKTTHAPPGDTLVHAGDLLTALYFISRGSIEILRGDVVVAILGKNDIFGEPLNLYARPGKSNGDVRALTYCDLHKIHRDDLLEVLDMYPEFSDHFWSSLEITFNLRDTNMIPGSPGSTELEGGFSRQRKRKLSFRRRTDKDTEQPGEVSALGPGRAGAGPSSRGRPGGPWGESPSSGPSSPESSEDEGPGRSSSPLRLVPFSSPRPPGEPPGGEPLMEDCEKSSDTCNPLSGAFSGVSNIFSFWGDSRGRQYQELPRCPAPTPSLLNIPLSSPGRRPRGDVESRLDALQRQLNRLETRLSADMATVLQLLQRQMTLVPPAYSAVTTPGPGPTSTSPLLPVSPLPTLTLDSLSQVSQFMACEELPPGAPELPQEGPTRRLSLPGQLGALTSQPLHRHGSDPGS

inhibition at 1 µM (rat NR1/NR2B receptor; [2]): 2.7%
Structure (SMILES): CCC(CC)n1ccc(Cn2cc(-c3ccc(Cl)c(OC(F)F)c3)cn2)n1 [Example 11, 3-[[4-[4-Chloro-3-(difluoromethoxy)phenyl]pyrazol-1-yl]methyl]-1-(1-ethylpropyl)pyrazole]
IC50 (hERG receptor; [1]): 12.7 µM

Structure (SMILES): Cc1cc(-c2cnn(Cc3ccn(C)n3)c2)ccc1Cl [Example 58, 3-[[4-(4-chloro-3-methyl-phenyl)pyrazol-1-yl]methyl]-1-methyl-pyrazole Succinate]
IC50 (hERG receptor; [1]): 12.6 µM
IC50 (rat NR1/NR2B receptor; [2]): 0.668 µM

Structure (SMILES): c1cc(-c2cnn(Cc3cc[nH]n3)c2)cc(C2CC2)c1 [Example 69, 4-(3-cyclopropylphenyl)-1-(1H-pyrazol-3-ylmethyl)pyrazole Succinate]
IC50 (hERG receptor): > 100 µM
IC50 (rat NR1/NR2B receptor; [2]): 0.831 µM

Structure (SMILES): CCn1cncc1Cn1cc(-c2ccc(Cl)c(C(F)F)c2)cn1 [Example 95, 4-(4-chloro-3-(difluoromethyl)phenyl)-1-((1-ethyl-1H-imidazol-5-yl)methyl)-1H-pyrazole]
IC50 (hERG receptor; [1]): 6.36 µM
IC50 (rat NR1/NR2B receptor; [2]): 0.0635 µM

Structure (SMILES): Fc1ccc(-c2cnn(CCc3cn[nH]c3)c2)cc1C(F)F [Example 37, 4-[3-(Difluoromethyl)-4-fluoro-phenyl]-1-[2-(1H-pyrazol-4-yl)ethyl]pyrazole]
IC50 (hERG receptor): 38.1 µM
IC50 (rat NR1/NR2B receptor; [2]): 2.06 µM

Structure (SMILES): Cn1nccc1Cn1cc(-c2ccc(Cl)cc2)cn1 [Example 76, 4-(4-Chlorophenyl)-1-[(2-methylpyrazol-3-yl)methyl]pyrazole]
IC50 (hERG receptor): 120 µM
IC50 (rat NR1/NR2B receptor; [2]): 7.35 µM

Structure (SMILES): Cn1cc(Cn2cc(-c3ccc(F)c(C(C)(F)F)c3)cn2)cn1 [Example 45, 4-[3-(1,1-difluoroethyl)-4-fluoro-phenyl]-1-[(1-methylpyrazol-4-yl)methyl]pyrazole Succinate]
IC50 (hERG receptor): 67.8 µM
IC50 (rat NR1/NR2B receptor; [2]): 0.261 µM

Structure (SMILES): Cc1cc(-c2cnn(Cc3ccn(C)n3)c2)ccc1F [Example 55, 3-[[4-(4-fluoro-3-methyl-phenyl)pyrazol-1-yl]methyl]-1-methyl-pyrazole Succinate]
IC50 (hERG receptor): 21.1 µM
IC50 (rat NR1/NR2B receptor; [2]): 0.871 µM

Structure (SMILES): FC(F)Oc1cc(-c2cnn(Cc3ccn(C4CCCC4)n3)c2)ccc1Cl [Example 12, 3-[[4-[4-Chloro-3-(difluoromethoxy)phenyl]pyrazol-1-yl]methyl]-1-cyclopentyl-pyrazole]
IC50 (hERG receptor): 8.06 µM
IC50 (rat NR1/NR2B receptor; [2]): 0.28 µM

Structure (SMILES): CCn1cc(CCn2cc(-c3ccc(Cl)c(OC(F)F)c3)cn2)cn1 [Example 10, 4-[4-Chloro-3-(difluoromethoxy)phenyl]-1-[2-(1-ethylpyrazol-4-yl)ethyl]pyrazole]
IC50 (hERG receptor): 18.4 µM
IC50 (rat NR1/NR2B receptor; [2]): 0.25 µM

Structure (SMILES): CS(=O)(=O)c1cccc(-c2cnn(Cc3cc[nH]n3)c2)c1 [Example 70, 4-(3-methylsulfonylphenyl)-1-(1H-pyrazol-3-ylmethyl)pyrazole Succinate]
IC50 (hERG receptor): > 100 µM
IC50 (rat NR1/NR2B receptor; [2]): 2.69 µM

Structure (SMILES): Cn1cc(Cn2cc(-c3ccc(Cl)cc3)cn2)cn1 [Example 78, 4-(4-Chlorophenyl)-1-[(1-methylpyrazol-4-yl)methyl]pyrazole]
IC50 (hERG receptor): > 100 µM
IC50 (rat NR1/NR2B receptor; [2]): 8.28 µM

inhibition at 1 µM (rat NR1/NR2B receptor; [2]): 23.3%
Structure (SMILES): Clc1ccc(-c2cnn(Cc3cn4ccccc4n3)c2)cc1 [Example 102, 2-((4-(4-chlorophenyl)-1H-pyrazol-1-yl)methyl)imidazo[1,2-a]pyridine]
IC50 (hERG receptor): 10.2 µM

Structure (SMILES): Cn1ccc(Cn2cc(-c3ccccn3)cn2)n1 [Example 104, 2-(1-((1-methyl-1H-pyrazol-3-yl)methyl)-1H-pyrazol-4-yl)pyridine Succinate]
IC50 (hERG receptor; [1]): > 100 µM
inhibition at 1 µM (rat NR1/NR2B receptor; [2]): 20.9%
inhibition at 10 µM (rat NR1/NR2B receptor): -0.6%

Structure (SMILES): Cc1n[nH]c(C)c1Cn1cc(-c2ccc(F)c(C(C)(F)F)c2)cn1 [Example 90]
IC50 (hERG receptor): 84 µM
IC50 (rat NR1/NR2B receptor; [2]): 0.422 µM

inhibition at 1 µM (rat NR1/NR2B receptor; [2]): 15.1%
inhibition at 10 µM (rat NR1/NR2B receptor; 10 μM test compound, [3H]-Ifenprodil binding, rat brain membranes): 16%
Structure (SMILES): COc1cc(F)ccc1-c1cnn(Cc2ccn(C)n2)c1 [Example 67, 3-[[4-(4-fluoro-2-methoxy-phenyl)pyrazol-1-yl]methyl]-1-methyl-pyrazole Succinate]
IC50 (hERG receptor; [1]): 63.3 µM

Reference: patent US10155727B2, “Pyrazoles” (Janssen Pharmaceuticals, Inc., priority 2014, dated 2018)
